Reference: US7445791B2, “Synergistic insecticidal composition containing Chloronicotynyle and Organosphosphorus compounds” (priority 2004, dated 2008)
≈ marks a conversion by molar mass, not a printed value. Read-outs that look alike come from different tables or passages of the source.

Columns and labels:
[1] = cited from earlier work
[2] = 20° C.; cited from earlier work
crop plants = settings: cited from earlier work
[3] = system: Brown plant hoppers and Green plant hoppers; format: in vivo; settings: 5 days after treatment
Experimental: In this evaluation, Brown plant hoppers and Green plant hoppers are obtained from laboratory colonies. Paddy leaves are immersed in 1:1 v/v, acetone/water solutions of the test compound, or solution of a combination of the test compounds, for a period of about 4 seconds. Following immersion, leaves are allowed to air-dry for 2-3 hours. Plastic bioassay trays containing multiple open-faced wells (4.0×4.0×2.5 cm) are used. Cut portions of a treated leaf, a moistened cotton dental wick and a single third-instar larva are placed into each well. These wells are covered with an adhesive vented clear plastic sheet which is held under constant fluorescent light at about 30° C. for a predetermined period of time. Larval mortality/morbidity is evaluated at 5 days after treatment. All treatments are replicated 3-4 fold in a randomized complete block design with 15-30 larvae per treatment. Using conventional log-probit analysis, the LC50 of each treatment is determined.
Using the above process, a Chloronicotynyle compound may be evaluated alone and in combination with a second insecticidal compound, Imidacloprid, at dose rates of 0, 15, 18, 21, 24, 27 and 30 ppm and in combination with Acephate 0, 400, 500, 600, 700, 800 ppm in various combination of these strengths.
Synergism can be calculated by using the Colby's method i.e. the expected (or predicted) response of the combination is calculated by taking the product of the observed response for each individual component of the combination when applied alone divided by 100 and subtracting this value from the sum of observed response for each component when applied alone. Synergism of the combination is then determined by comparing the observed response of the combination to the expected (or predicted) response as calculated from the observed response of each individual component alone. If the observed response of the combination is greater than the expected (or predicted) response then the combination is said to be synergistic and falls within the definition of synergistic effect. (Colby, S. R., Weeds, 1967(15), p. 20-22).

[4] = cited from earlier work; for DT50 hydrolysis: 40° C.; for DT 50 (calculated) hydrolysis: 20° C.
mice = settings: cited from earlier work
[5] = system: nematodes and spider mites; settings: cited from earlier work
[6] = mammals, oral administration, almost entirely in the urine; cited from earlier work

Molecule: COP(=O)(NC(C)=O)SC (stereo not shown) [Acephate, O,S-dimethylacetylphosphoramidothioate]
- solubility in acetone ([1]; 20° C.): 151 mg/mL (≈ 824 mM)
- solubility in benzene ([1]; 20° C.): 16 mg/mL (≈ 87.4 mM)
- solubility in ethanol ([1]; 20° C.): > 100 mg/mL
- solubility in ethyl acetate ([1]; 20° C.): 35 mg/mL (≈ 191 mM)
- solubility in hexane ([1]; 20° C.): 0.1 mg/mL (≈ 0.546 mM)
- solubility in water [2]: about 790 g/l
- phytotoxicity to crop plants (in words) (crop plants): non-phytotoxic to most crop plants
- Observed Mortality % ([3]; Acephate 600 ppm alone): 52.50%
- Observed Mortality % ([3]; Acephate 700 ppm alone): 60.00%
- Observed Mortality % ([3]; Acephate 800 ppm alone): 70.00%
- DT50 hydrolysis ([4]; pH 3): 710 h
- DT50 hydrolysis ([4]; pH 9): 60 h

Molecule: O=[N+]([O-])NC1=NCCN1Cc1ccc(Cl)nc1 [Imidacloprid, 1-(6-chloro-3-pyridylmethyl)-N-nitroimidazolidin-2-yldeneamine]
- solubility in dichloromethane ([1]; 20° C.): 55 mg/mL (≈ 215 mM)
- solubility in hexane ([1]; 20° C.): < 0.1 mg/mL
- solubility in isopropanol ([1]; 20° C.): 1.2 mg/mL (≈ 4.69 mM)
- solubility in toluene ([1]; 20° C.): 0.68 mg/mL (≈ 2.66 mM)
- acute oral LD50 (mice): 150 mg/kg
- effect on nematodes and spider mites [5]: no effect
- Observed Mortality % ([3]; Imidacloprid 20 ppm alone): 47.30%

Molecule: CCN(CC)C(=O)C(Cl)=C(C)OP(=O)(OC)OC [Phosphamidon, 2-chloro-2-diethylcarbamoyl-1-methylvinyldimethylphosphate]
- dose excreted within 24 hours [6]: 85-90%
- Observed Mortality % ([3]; Phosphamidon 320 ppm alone): 60.0%
- Observed Mortality % ([3]; Phosphamidon 370 ppm alone): 65%
- Observed Mortality % ([3]; Phosphamidon 400 ppm alone): 72.0%
- DT 50 (calculated) hydrolysis ([4]; pH 5): 60 days
- DT 50 (calculated) hydrolysis ([4]; pH 7): 54 days
- DT 50 (calculated) hydrolysis ([4]; pH 9): 12 days
- hydrolysis in alkali (in words) ([4]; alkali): rapidly hydrolysed

Molecule: (E)-N′-[(6-chloro-3-pyridyl)methyl]-N-cyano-N-methylacetamidine [Acetamiprid]
- solubility in organic solvents (in words) ([1]; acetone, methanol, ethanol, dichloromethane, chloroform, acetonitrile and tetrahydrofuron): Soluble
